In article PMC10439952, “JT002, a small molecule inhibitor of the NLRP3 inflammasome for the treatment of autoinflammatory disorders” (Scientific Reports, 2023):

Molecular target: NLRP3 inflammasome (Mus musculus, UniProt Q8R4B8)
Assay: Inhibition of IL-1β production in mouse PBMCs stimulated by LPS + nigericin
Type: cell-based
Parameters: host or cells: mouse PBMCs; mouse bone-marrow derived macrophages; mouse whole blood (C57BL/6 in the ex vivo study)
Details: Mouse PBMC, read-out: Geo Av IC50, IL-1β
Protocol: Inflammasome activation and whole blood assays were essentially carried out as described earlier. Details can be found in the supplementary information section accompanying this publication. A protocol for blood draws from healthy volunteers and use of the blood in preclinical assays was approved by Western Institutional Review Board, Inc (Puyallup, WA, USA). Informed consent was obtained from each donor prior to the first blood draw.
Cell viability was determined by addition of an equal volume of CellTiter-Glo® 2.0 reagent (Promega) to the remaining cells/supernatant in each well. Intracellular Caspase-1 activity was measured using the Caspase-Glo® assay (Promega) according to the manufacturer’s instructions. The biochemical capsase-1 assay was conducted at Reaction Biology Corporation (Malvern, USA). Human IL-1β, IL-1α, and TNFα and mouse IL-1β were measured in cell culture supernatants using homogeneous time resolved fluorescence assay kits (HTRF, Cisbio, Codolet, France). Human IL-18 was measured in cell culture supernatants using an ELISA kit (R&D Systems, Minneapolis, MN, USA). Plasma IL-1β concentrations were determined by Quantikine® ELISA (R&D Systems, Minneapolis, MN).
4H). MS: m/z 433.1 (M+H+). […]

Sequence of NLRP3 inflammasome (Q8R4B8 whole entry): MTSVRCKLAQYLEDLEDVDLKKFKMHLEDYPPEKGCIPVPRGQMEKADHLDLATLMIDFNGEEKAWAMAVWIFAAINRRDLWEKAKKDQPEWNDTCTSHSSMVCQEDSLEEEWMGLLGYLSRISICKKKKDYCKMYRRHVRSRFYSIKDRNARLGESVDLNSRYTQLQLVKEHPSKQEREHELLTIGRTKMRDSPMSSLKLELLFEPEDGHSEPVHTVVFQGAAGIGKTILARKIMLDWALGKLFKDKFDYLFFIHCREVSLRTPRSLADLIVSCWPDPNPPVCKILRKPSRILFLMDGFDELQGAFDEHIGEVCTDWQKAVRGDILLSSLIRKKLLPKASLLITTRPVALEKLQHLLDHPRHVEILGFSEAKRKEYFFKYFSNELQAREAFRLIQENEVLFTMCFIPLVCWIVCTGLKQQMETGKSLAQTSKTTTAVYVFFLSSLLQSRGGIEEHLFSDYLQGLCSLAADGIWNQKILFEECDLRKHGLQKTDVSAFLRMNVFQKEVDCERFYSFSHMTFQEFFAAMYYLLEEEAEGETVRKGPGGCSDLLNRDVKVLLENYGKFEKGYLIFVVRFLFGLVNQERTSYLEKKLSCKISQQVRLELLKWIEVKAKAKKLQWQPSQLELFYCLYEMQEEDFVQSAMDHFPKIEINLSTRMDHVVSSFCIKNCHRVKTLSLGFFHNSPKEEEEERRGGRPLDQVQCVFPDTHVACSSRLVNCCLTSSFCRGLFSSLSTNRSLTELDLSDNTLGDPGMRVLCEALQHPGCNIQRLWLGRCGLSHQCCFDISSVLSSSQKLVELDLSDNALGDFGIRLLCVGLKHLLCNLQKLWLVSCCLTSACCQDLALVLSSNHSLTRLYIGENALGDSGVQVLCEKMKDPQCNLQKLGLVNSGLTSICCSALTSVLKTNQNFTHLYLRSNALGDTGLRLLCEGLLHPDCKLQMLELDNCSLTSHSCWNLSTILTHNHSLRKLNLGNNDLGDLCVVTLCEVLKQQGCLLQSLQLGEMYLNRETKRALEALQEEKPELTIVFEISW

IC50: 25 nM
SMILES: CO[C@@H]1COc2c(S(=O)(=O)NC(=O)Nc3c4c(cc5c3CCC5)CCC4)cnn2C1 [JT002]
